IC50 data for 23 compounds are collected here from US10626103B2, “Inhibitor of lysine specific demethylase-1” (CELGENE QUANTICEL RESEARCH, INC., priority 2014, dated 2020).

pIC50: −log10 of the molar value.

Test [1] deals with full-length human LSD1 (Homo sapiens (Human), UniProt O60341). The test can be described thus: In vitro enzyme inhibition assay LSD-1 (TR-FRET). The conditions noted are these: H3K4me1-biotin peptide. Type of test: biochemical. The method, then: This assay determines the ability of a test compound to inhibit LSD1 demethylase activity.
The enzymatic assay of LSD1 activity is based on Time Resolved-Fluorescence Resonance Energy Transfer (TR-FRET) detection.
Plates were read by EnVision Multilabel Reader in TR-FRET mode (excitation at 320 nm, emission at 615 nm and 665 nm) after 1 hour incubation at room temperature.
The ability of the compounds disclosed herein to inhibit LSD1 activity was quantified and the respective IC50 value was determined.
On the technique in general: In TR-FRET formats the signal depends on donor and acceptor labels being close together.

The subject of test [2] is CD11b expression in THP-1 (AML) cells. Kind of test: LSD1 CD11b cellular assay (flow cytometry). Type of test: cell-based. The conditions noted are these: Homo sapiens, 96 h, THP-1 cells, 4 days. The method, then: To analyze LSD1 inhibitor efficacy in cells, a CDL11b flow cytometry assay was performed. LSD1 inhibition induces CD11b expression in THP-1 (AML) cells which can be measured by flow cytometry. […] LSD 1 test compounds were serially diluted in DMSO. The dilutions were added to each well accordingly to a final concentration of 0.2% DMSO. The cells were incubated at 37 degrees Celsius in 5% CO2 for 4 days. 250 μL of each well was transferred to a well in a 96 well round bottom plate. The plate was centrifuged at 1200 rpm at 4 degrees Celsius in a Beckman Coulter Alegra 6KR centrifuge for 5 minutes. The media was removed leaving the cells at the bottom of the wells. The cells were washed in 100 μL cold HBSS (Hank's Balanced Salt Solution) plus 2% BSA (Bovine Serum Albumin) solution and centrifuged at 1200 rpm at 4 degrees Celsius for 5 minutes. The wash was removed. […] The cells were centrifuged and washed two times in 100 μl HBSS plus 2% BSA. After the final spin the cells were resuspended in 100 μL HBSS plus 2% BSA containing 1 ug/mL DAPI (4′,6-diamidino-2-phenylindole). The cells were then analyzed by flow cytometry in a BD FACSAria machine. Cells were analyzed for CD11b expression. The percent of CD11b expressing cells for each inhibitor concentration was used to determine an IC50 curve for each compound analyzed.
In general terms: In flow cytometry, cells or beads pass a laser one at a time.

As for `Cn1cc2cc(-c3c(-c4ccc(C#N)c(F)c4)cc(C(=O)N[C@@H]4CCNC4)n3C)ccc2n1` [Example 30, N-((3R)pyrrolidin-3-yl)[4-(4-cyano-3-fluorophenyl)-1-methyl-5-(2-methyl(2H-indazol-5-yl))pyrrol-2-yl]carboxamide], the pIC50 in test [1] and in test [2] was greater than 7.00 in each case.
Turning to `CN(CCN)C(=O)c1cc(-c2ccc(C#N)c(F)c2)c(-c2ccc3nn(C)cc3c2)n1C` [Example 31, N-(2-aminoethyl)[4-(4-cyano-3-fluorophenyl)-1-methyl-5-(2-methyl(2H-indazol-5-yl))pyrrol-2-yl]-N-methylcarboxamide], the negative logarithm of the IC50 (pIC50) in test [1] and in test [2] was greater than 7.00 each time.
With `CNCCNC(=O)c1cc(-c2ccc(C#N)c(F)c2)c(-c2ccc3nn(C)cc3c2)n1C` [Example 32, [4-(4-cyano-3-fluorophenyl)-1-methyl-5-(2-methyl(2H-indazol-5-yl))pyrrol-2-yl]-N-[2-(methylamino)ethyl]carboxamide], the pIC50 in test [1] and in test [2] was greater than 7.00 each time.
Take `Cn1cc2cc(-c3c(-c4ccc(C#N)c(F)c4)cc(C(=O)N4CCC[C@@H](N)C4)n3CCCO)ccc2n1` [Example 34, (R)-4-(5-(3-aminopiperidine-1-carbonyl)-1-(3-hydroxypropyl)-2-(2-methyl-2H-indazol-5-yl)-1H-pyrrol-3-yl)-2-fluorobenzonitrile]: the pIC50 in test [1] and in test [2] was greater than 7.00 throughout.
Take `Cn1cc2cc(-c3c(-c4ccc(C#N)c(F)c4)cc(C(=O)N4CCC[C@@H](N)C4)n3CCO)ccc2n1` [Example 35, (R)-4-(5-(3-aminopiperidine-1-carbonyl)-1-(2-hydroxyethyl)-2-(2-methyl-2H-indazol-5-yl)-1H-pyrrol-3-yl)-2-fluorobenzonitrile]: the pIC50 in test [1] and in test [2] was greater than 7.00 each time.
`COCCn1c(C(=O)N2CCC[C@@H](N)C2)cc(-c2ccc(C#N)c(F)c2)c1-c1ccc2nn(C)cc2c1` [Example 36, (R)-4-(5-(3-aminopiperidine-1-carbonyl)-1-(2-methoxyethyl)-2-(2-methyl-2H-indazol-5-yl)-1H-pyrrol-3-yl)-2-fluorobenzonitrile]: the pIC50 in test [1] and in test [2] was greater than 7.00 in each case.
As for `Cn1cc2cc(-c3c(-c4ccc(C#N)c(F)c4)cc(C(=O)N4CCC[C@@H](N)C4)n3C[C@@H](O)CO)ccc2n1` [Example 38, 4-(5-((R)-3-aminopiperidine-1-carbonyl)-1-((R)-2,3-dihydroxypropyl)-2-(2-methyl-2H-indazol-5-yl)-1H-pyrrol-3-yl)-2-fluorobenzonitrile], the pIC50 in test [1] and in test [2] was greater than 7.00 in each case.
In the case of `Cn1cc2cc(-c3c(-c4ccc(C#N)c(F)c4)cc(C(=O)N4CCC[C@@H](N)C4)n3C[C@H](O)CO)ccc2n1` [Example 39, 4-(5-((R)-3-aminopiperidine-1-carbonyl)-1-((S)-2,3-dihydroxypropyl)-2-(2-methyl-2H-indazol-5-yl)-1H-pyrrol-3-yl)-2-fluorobenzonitrile], the pIC50 in test [1] and in test [2] was greater than 7.00 throughout.
With `Cn1cc2cc(-c3c(-c4ccc(C#N)c(F)c4)cc(C(=O)NC[C@@H]4CCNC4)n3C)ccc2n1` [Example 40, N-[((3R)pyrrolidin-3-yl)methyl][4-(4-cyano-3-fluorophenyl)-1-methyl-5-(2-methyl(2H-indazol-5-yl))pyrrol-2-yl]carboxamide], the pIC50 in test [1] and in test [2] was greater than 7.00 in each case.
Regarding `COc1ccc(-c2c(-c3ccc(C#N)c(F)c3)cc(C(=O)N3CCC[C@@H](N)C3)n2CCCC(N)=O)cc1` [Example 42, 4-{5-[((3R)-3-aminopiperidyl)carbonyl]-3-(4-cyano-3-fluorophenyl)-2-(4-methoxyphenyl)pyrrolyl} butanamide], the pIC50 in test [1] and in test [2] was greater than 7.00 throughout.
For `Cc1c(C(=O)N2CCC(N)CC2)nc(-c2ccc(C#N)c(F)c2)n1-c1ccc2nn(C)cc2c1` [Example 43, 4-[4-(4-Aminopiperidine-1-carbonyl)-5-methyl-1-(2-methylindazol-5-yl)imidazol-2-yl]-2-fluorobenzonitrile], the pIC50 (commonly the negative decadic logarithm of the IC50, by convention in mol/L) in test [1] is greater than 7.00; in test [2] it was 6.00 to 7.00.
For `Cc1c(C(=O)N(C)CCN)nc(-c2ccc(C#N)c(F)c2)n1-c1ccc2nn(C)cc2c1` [Example 44, N-(2-Aminoethyl)-2-(4-cyano-3-fluorophenyl)-N,5-dimethyl-1-(2-methylindazol-5-yl)imidazole-4-carboxamide] the same measures were greater than 7.00 and greater than 7.00.
For `Cc1c(C(=O)NC2CCCNC2)nc(-c2ccc(C#N)c(F)c2)n1-c1ccc2nn(C)cc2c1` (stereo not shown) [Example 45, 2-(4-Cyano-3-fluorophenyl)-5-methyl-1-(2-methylindazol-5-yl)-N-piperidin-3-ylimidazole-4-carboxamide] the same measures were greater than 7.00 and greater than 7.00.
The like results for `Cc1c(C(=O)NC2CCNC2)nc(-c2ccc(C#N)c(F)c2)n1-c1ccc2nn(C)cc2c1` (stereo not shown) [Example 46, 2-(4-Cyano-3-fluorophenyl)-5-methyl-1-(2-methylindazol-5-yl)-N-pyrrolidin-3-ylimidazole-4-carboxamide] were, in that order, greater than 7.00 and greater than 7.00.
Consider `Cc1c(C(=O)N2CCC[C@@H](N)C2)nc(-c2ccc(C#N)c(F)c2)n1-c1cc2cn(C)nc2cc1F` [Example 47, 4-[4-[(3R)-3-Aminopiperidine-1-carbonyl]-1-(6-fluoro-2-methylindazol-5-yl)-5-methylimidazol-2-yl]-2-fluorobenzonitrile], for which the pIC50 in test [1] and in test [2] was greater than 7.00 throughout.
As for `Cc1c(C(=O)N2CC[C@H](N)C2)nc(-c2ccc(C#N)c(F)c2)n1-c1cc(F)c2nn(C)cc2c1` [Example 50, 4-[4-[(3S)-3-Aminopyrrolidine-1-carbonyl]-1-(7-fluoro-2-methylindazol-5-yl)-5-methylimidazol-2-yl]-2-fluorobenzonitrile], the pIC50 in test [1] and in test [2] was greater than 7.00 throughout.
With `CN[C@H]1CCN(C(=O)c2nc(-c3ccc(C#N)c(F)c3)n(-c3cc(F)c4nn(C)cc4c3)c2C)C1` [Example 51, 2-Fluoro-4-[1-(7-fluoro-2-methylindazol-5-yl)-5-methyl-4-[(3S)-3-(methylamino)pyrrolidine-1-carbonyl]imidazol-2-yl]benzonitrile], the negative-log IC50 (pIC50) in test [1] and in test [2] was greater than 7.00 throughout.
In the case of `Cc1c(C(=O)N[C@@H]2CCCN(C)C2)nc(-c2ccc(C#N)c(F)c2)n1-c1ccc2nn(C)c(Cl)c2c1` [Example 56, 1-(3-Chloro-2-methylindazol-5-yl)-2-(4-cyano-3-fluorophenyl)-5-methyl-N-[(3R)-1-methylpiperidin-3-yl]imidazole-4-carboxamide], the pIC50 in test [1] and in test [2] was greater than 7.00 each time.
As to `CN(C)[C@H]1CCN(C(=O)c2cn(-c3ccc4nn(C)c(Cl)c4c3)c(-c3ccc(C#N)c(F)c3)n2)C1` [Example 57, 4-[1-(3-Chloro-2-methylindazol-5-yl)-4-[(3S)-3-(dimethylamino)pyrrolidine-1-carbonyl]imidazol-2-yl]-2-fluorobenzonitrile], the pIC50 in test [1] and in test [2] was greater than 7.00 in each case.
As to `CN(C)[C@H]1CCN(C(=O)c2nc(-c3ccc(C#N)c(F)c3)n(-c3ccc4nn(C)c(Cl)c4c3)c2F)C1` [Example 58, 4-[1-(3-Chloro-2-methylindazol-5-yl)-4-[(3S)-3-(dimethylamino)pyrrolidine-1-carbonyl]-5-fluoroimidazol-2-yl]-2-fluorobenzonitrile], the pIC50 in test [1] and in test [2] was greater than 7.00 each time.
Take `CN1CCC[C@@H](NC(=O)c2cn(-c3ccc4nn(C)c(Cl)c4c3)c(-c3ccc(C#N)c(F)c3)n2)C1` [Example 59, 1-(3-Chloro-2-methylindazol-5-yl)-2-(4-cyano-3-fluorophenyl)-N-[(3R)-1-methylpiperidin-3-yl]imidazole-4-carboxamide]: the pIC50 in test [1] and in test [2] was greater than 7.00 in each case.
As to `Cc1c(C(=O)N[C@@H]2CCCN(C)C2)nc(-c2ccc(C#N)c(F)c2)n1-c1ccc2nn(C)cc2c1` [Example 60, 2-(4-Cyano-3-fluorophenyl)-5-methyl-1-(2-methylindazol-5-yl)-N-[(3R)-1-methylpiperidin-3-yl]imidazole-4-carboxamide], the pIC50 in test [1] and in test [2] was greater than 7.00 in each case.
On to `Cn1nc2ccc(-n3c(-c4ccc(C#N)c(F)c4)nc(C(=O)N4CCC[C@@H](N)C4)c3F)cc2c1Cl` [Example 61, 4-[4-[(3R)-3-Aminopiperidine-1-carbonyl]-1-(3-chloro-2-methylindazol-5-yl)-5-fluoroimidazol-2-yl]-2-fluorobenzonitrile], for which the pIC50 in test [1] and in test [2] was greater than 7.00 in each case.
